Measurements reported in ChEMBL document CHEMBL4765312, “Capsaicin derivatives with nitrothiophene substituents: Design, synthesis and antibacterial activity against multidrug-resistant S. aureus” (Eur J Med Chem, 2020).
Converted amounts (≈) assume the structure as drawn. The source made the active and inactive calls. The rule behind the calls is not given here.

Key:
Staphylococcus aureus [1] = assay: Antibacterial activity against Staphylococcus aureus Newman strain assessed as reduction in bacterial growth incubated for 16 to 18 hrs by two fold serial dilution method; type: functional; conditions: time 16-18 hrs
Staphylococcus aureus [2] = assay: Antibacterial activity against multidrug-resistant Staphylococcus aureus NRS108 assessed as reduction in bacterial growth incubated for 16 to 18 hrs by two-fold serial dilution method; type: functional; conditions: time 16-18 hrs
Staphylococcus aureus [3] = assay: Antibacterial activity against multidrug-resistant Staphylococcus aureus NRS271 assessed as reduction in bacterial growth incubated for 16 to 18 hrs by two fold serial dilution method; type: functional; conditions: time 16-18 hrs
Staphylococcus aureus [4] = assay: Antibacterial activity against multidrug-resistant Staphylococcus aureus NRS1 assessed as reduction in bacterial growth incubated for 16 to 18 hrs by two fold serial dilution method; type: functional; conditions: time 16-18 hrs
Staphylococcus aureus [5] = assay: Antibacterial activity against multidrug-resistant Staphylococcus aureus NRS70 assessed as reduction in bacterial growth incubated for 16 to 18 hrs by two fold serial dilution method; type: functional; conditions: time 16-18 hrs
Staphylococcus aureus [6] = assay: Antibacterial activity against mutidrug-resistant Staphylococcus aureus NRS100 assessed as reduction in bacterial growth incubated for 16 to 18 hrs by two fold serial dilution method; type: functional; conditions: time 16-18 hrs
Staphylococcus aureus [7] = assay: Bactericidal activity against Staphylococcus aureus Newman strain assessed as reduction in bacterial colonies formation after 24 hrs by crystal violet staining based assay; type: functional, organism-based
[8] = Cytotoxicity against human HEK293T cells assessed as reduction in cell viability measured after 48 hrs by MTT assay; type: cell-based, HEK-293T
Staphylococcus aureus [9] = assay: Potency index, ratio of vancomycin MIC to test compound MIC for antibacterial activity against multidrug-resistant Staphylococcus aureus NRS70 assessed as reduction in bacterial growth incubated for 16 to 18 hrs by two fold serial dilution method; type: functional; conditions: time 16-18 hrs
Staphylococcus aureus [10] = assay: Potency index, ratio of vancomycin MIC to test compound MIC for antibacterial activity against multidrug-resistant Staphylococcus aureus NRS1 assessed as reduction in bacterial growth incubated for 16 to 18 hrs by two fold serial dilution method; type: functional; conditions: time 16-18 hrs
Staphylococcus aureus [11] = assay: Potency index, ratio of vancomycin MIC to test compound MIC for antibacterial activity against multidrug-resistant Staphylococcus aureus NRS271 assessed as reduction in bacterial growth incubated for 16 to 18 hrs by two fold serial dilution method; type: functional; conditions: time 16-18 hrs
Staphylococcus aureus [12] = assay: Potency index, ratio of vancomycin MIC to test compound MIC for antibacterial activity against mutidrug-resistant Staphylococcus aureus NRS100 assessed as reduction in bacterial growth incubated for 16 to 18 hrs by two fold serial dilution method; type: functional; conditions: time 16-18 hrs
Staphylococcus aureus [13] = assay: Antibiofilm activity against Staphylococcus aureus Newman strain assessed as biofilm formation at 0.78 ug/ml after 24 hrs by crystal violet staining based assay relative to control; type: functional; conditions: dose 0.78 µg/ml
Staphylococcus aureus [14] = assay: Potency index, ratio of vancomycin MIC to test compound MIC for antibacterial activity against multidrug-resistant Staphylococcus aureus NRS108 assessed as reduction in bacterial growth incubated for 16 to 18 hrs by two-fold serial dilution method; type: functional; conditions: time 16-18 hrs

## COc1cc(CNC(=O)c2cccs2)ccc1OC(=O)c1ccc([N+](=O)[O-])s1
Staphylococcus aureus [1]
  MIC: > 50 µg/mL

## COc1cc(CNC(=O)c2ccc([N+](=O)[O-])o2)ccc1OC(=O)c1ccc([N+](=O)[O-])s1
Staphylococcus aureus [1]
  MIC: 3.13 µg/mL (≈ 7 µM)

## O=C(NCc1ccc(NC(=O)c2ccc([N+](=O)[O-])s2)cc1)c1ccc([N+](=O)[O-])s1
Staphylococcus aureus [1]
  MIC: > 50 µg/mL

## O=C(NCc1ccc(OC(=O)c2ccc([N+](=O)[O-])s2)c(C(F)(F)F)c1)c1ccc([N+](=O)[O-])s1
Staphylococcus aureus [1]
  MIC: 3.13 µg/mL (≈ 6.24 µM)

## COc1cc(CNC(=O)c2ccc([N+](=O)[O-])s2)ccc1OC(=O)c1ncc([N+](=O)[O-])n1C
Staphylococcus aureus [1]
  MIC: > 50 µg/mL

## COc1cc(CNC(=O)c2ccc([N+](=O)[O-])s2)ccc1OC(=O)/C=C/c1ccc([N+](=O)[O-])s1
Staphylococcus aureus [1]
  MIC: > 50 µg/mL

## COc1cc(CNC(=O)c2cccc([N+](=O)[O-])c2)ccc1OC(=O)c1ccc([N+](=O)[O-])s1
Staphylococcus aureus [1]
  MIC: > 50 µg/mL

## COc1cc(CNC(=O)/C=C/c2ccc([N+](=O)[O-])s2)ccc1OC(=O)c1ccc([N+](=O)[O-])s1
Staphylococcus aureus [1]
  MIC: > 50 µg/mL

## CN[C@H](CC(C)C)C(=O)N[C@H]1C(=O)N[C@@H](CC(N)=O)C(=O)N[C@H]2C(=O)N[C@H]3C(=O)N[C@H](C(=O)N[C@H](C(=O)O)c4cc(O)cc(O)c4-c4cc3ccc4O)[C@H](O)c3ccc(c(Cl)c3)Oc3cc2cc(c3O[C@@H]2O[C@H](CO)[C@@H](O)[C@H](O)[C@H]2O[C@H]2C[C@](C)(N)[C@H](O)[C@H](C)O2)Oc2ccc(cc2Cl)[C@H]1O [VANCOMYCIN]
Staphylococcus aureus [2]
  MIC: 0.78 µg/mL (≈ 0.538 µM)
Staphylococcus aureus [3]
  MIC: 0.78 µg/mL (≈ 0.538 µM)
Staphylococcus aureus [4]
  MIC: 1.56 µg/mL (≈ 1.08 µM)
Staphylococcus aureus [5]
  MIC: 0.39 µg/mL (≈ 0.269 µM)
Staphylococcus aureus [6]
  MIC: 0.78 µg/mL (≈ 0.538 µM)
Staphylococcus aureus [7]
  Activity: inactive
Staphylococcus aureus [1]
  MIC: 0.78 µg/mL (≈ 0.538 µM)

## O=C(Nc1ccc([N+](=O)[O-])s1)c1ccc(CNC(=O)c2ccc([N+](=O)[O-])s2)cc1
Staphylococcus aureus [1]
  MIC: > 50 µg/mL

## Cc1cc(CNC(=O)c2ccc([N+](=O)[O-])s2)ccc1OC(=O)c1ccc([N+](=O)[O-])s1
Staphylococcus aureus [2]
  MIC: 1.56 µg/mL (≈ 3.49 µM)
Staphylococcus aureus [3]
  MIC: 0.39 µg/mL (≈ 0.872 µM)
Staphylococcus aureus [4]
  MIC: 0.39 µg/mL (≈ 0.872 µM)
Staphylococcus aureus [5]
  MIC: 0.39 µg/mL (≈ 0.872 µM)
[8]
  CC50 at 48 h: 168 µg/mL (≈ 375 µM)
Staphylococcus aureus [6]
  MIC: 0.39 µg/mL (≈ 0.872 µM)
Staphylococcus aureus [1]
  MIC: 0.39 µg/mL (≈ 0.872 µM)

## O=C(NCc1ccc(Oc2ccc([N+](=O)[O-])s2)cc1)c1ccc([N+](=O)[O-])s1
Staphylococcus aureus [1]
  MIC: 3.13 µg/mL (≈ 7.72 µM)

## CN(Cc1ccc(N(C)C(=O)c2ccc([N+](=O)[O-])s2)cc1)C(=O)c1ccc([N+](=O)[O-])s1
Staphylococcus aureus [1]
  MIC: 6.25 µg/mL (≈ 13.6 µM)

## COc1cc(CNC(=O)CCCC/C=C/C(C)C)ccc1O [CAPSAICIN]
Staphylococcus aureus [1]
  MIC: > 50 µg/mL

## COc1cc(CNC(=O)c2ccc([N+](=O)[O-])s2)ccc1OC(=O)c1cccc([N+](=O)[O-])c1
Staphylococcus aureus [1]
  MIC: > 50 µg/mL

## COc1cc(CNC(=O)c2ccc([N+](=O)[O-])s2)ccc1O
Staphylococcus aureus [1]
  MIC: > 50 µg/mL

## COc1cc(CNC(=O)c2ncc([N+](=O)[O-])n2C)ccc1OC(=O)c1ccc([N+](=O)[O-])s1
Staphylococcus aureus [1]
  MIC: > 50 µg/mL

## COc1cc(CNC(=O)c2ccc([N+](=O)[O-])s2)ccc1OC(=O)c1cccs1
Staphylococcus aureus [1]
  MIC: > 50 µg/mL

## CCCCCCCCCC(=O)NCc1ccc(OC(=O)c2ccc([N+](=O)[O-])s2)c(OC)c1
Staphylococcus aureus [1]
  MIC: > 50 µg/mL

## COc1cc(CNC(=O)c2ccc([N+](=O)[O-])s2)ccc1OC(=O)c1ccc([N+](=O)[O-])o1
Staphylococcus aureus [1]
  MIC: 6.25 µg/mL (≈ 14 µM)

## O=C(NCc1ccc(OC(=O)c2ccc([N+](=O)[O-])s2)c(Br)c1)c1ccc([N+](=O)[O-])s1
Staphylococcus aureus [1]
  MIC: 6.25 µg/mL (≈ 12.2 µM)

## O=C(NCc1ccc(OC(=O)c2ccc([N+](=O)[O-])s2)c([N+](=O)[O-])c1)c1ccc([N+](=O)[O-])s1
Staphylococcus aureus [1]
  MIC: 6.25 µg/mL (≈ 13.1 µM)

## O=C(NCc1ccc(OC(=O)c2ccc([N+](=O)[O-])s2)c(Cl)c1)c1ccc([N+](=O)[O-])s1
Staphylococcus aureus [2]
  MIC: 1.56 µg/mL (≈ 3.33 µM)
Staphylococcus aureus [3]
  MIC: 1.56 µg/mL (≈ 3.33 µM)
Staphylococcus aureus [4]
  MIC: 0.78 µg/mL (≈ 1.67 µM)
Staphylococcus aureus [5]
  MIC: 0.39 µg/mL (≈ 0.834 µM)
Staphylococcus aureus [6]
  MIC: 3.13 µg/mL (≈ 6.69 µM)
Staphylococcus aureus [1]
  MIC: 0.78 µg/mL (≈ 1.67 µM)

## O=C(NCc1ccc(OC(=O)c2ccc([N+](=O)[O-])s2)cc1)c1ccc([N+](=O)[O-])s1
Staphylococcus aureus [2]
  MIC: 3.13 µg/mL (≈ 7.22 µM)
Staphylococcus aureus [3]
  MIC: 1.56 µg/mL (≈ 3.6 µM)
Staphylococcus aureus [4]
  MIC: 0.78 µg/mL (≈ 1.8 µM)
Staphylococcus aureus [5]
  MIC: 0.78 µg/mL (≈ 1.8 µM)
[8]
  CC50 at 48 h: 251 µg/mL (≈ 579 µM)
Staphylococcus aureus [6]
  MIC: 3.13 µg/mL (≈ 7.22 µM)
Staphylococcus aureus [1]
  MIC: 0.78 µg/mL (≈ 1.8 µM)

## NC[C@H]1O[C@H](O[C@H]2[C@H](O)[C@@H](O[C@H]3O[C@H](CO)[C@@H](O)[C@H](N)[C@H]3O)[C@H](N)C[C@@H]2N)[C@H](O)[C@@H](O)[C@@H]1O [KANAMYCIN]
Staphylococcus aureus [2]
  MIC: > 50 µg/mL
Staphylococcus aureus [3]
  MIC: 3.13 µg/mL (≈ 6.46 µM)
Staphylococcus aureus [4]
  MIC: > 50 µg/mL
Staphylococcus aureus [5]
  MIC: > 50 µg/mL
Staphylococcus aureus [6]
  MIC: 1.56 µg/mL (≈ 3.22 µM)
Staphylococcus aureus [1]
  MIC: 3.13 µg/mL (≈ 6.46 µM)

## O=C(NCc1ccc(-c2noc(-c3ccc([N+](=O)[O-])s3)n2)cc1)c1ccc([N+](=O)[O-])s1
Staphylococcus aureus [2]
  MIC: 0.2 µg/mL (≈ 0.437 µM)
Staphylococcus aureus [9]
  Ratio: 2
Staphylococcus aureus [10]
  Ratio: 2
Staphylococcus aureus [11]
  Ratio: 2
Staphylococcus aureus [12]
  Ratio: 2
Staphylococcus aureus [3]
  MIC: 0.2 µg/mL (≈ 0.437 µM)
Staphylococcus aureus [4]
  MIC: 0.39 µg/mL (≈ 0.853 µM)
Staphylococcus aureus [5]
  MIC: 0.2 µg/mL (≈ 0.437 µM)
[8]
  CC50 at 48 h: 126 µg/mL (≈ 276 µM)
Staphylococcus aureus [13]
  Activity: 80%
Staphylococcus aureus [6]
  MIC: 0.39 µg/mL (≈ 0.853 µM)
Staphylococcus aureus [7]
  Activity: Active
Staphylococcus aureus [1]
  MIC: 0.78 µg/mL (≈ 1.71 µM)
Staphylococcus aureus [14]
  Ratio: 2

## COc1cc(OC(=O)c2ccc([N+](=O)[O-])s2)ccc1CNC(=O)c1ccc([N+](=O)[O-])s1
Staphylococcus aureus [2]
  MIC: 1.56 µg/mL (≈ 3.37 µM)
Staphylococcus aureus [3]
  MIC: 0.78 µg/mL (≈ 1.68 µM)
Staphylococcus aureus [4]
  MIC: 0.78 µg/mL (≈ 1.68 µM)
Staphylococcus aureus [5]
  MIC: 0.78 µg/mL (≈ 1.68 µM)
Staphylococcus aureus [6]
  MIC: 0.78 µg/mL (≈ 1.68 µM)
Staphylococcus aureus [1]
  MIC: 1.56 µg/mL (≈ 3.37 µM)

## O=C(NCc1ccc(OC(=O)c2ccc([N+](=O)[O-])s2)c(F)c1)c1ccc([N+](=O)[O-])s1
Staphylococcus aureus [1]
  MIC: 3.13 µg/mL (≈ 6.93 µM)

## COc1cc(CNC(=O)c2ccc([N+](=O)[O-])s2)ccc1OC(=O)c1ccc([N+](=O)[O-])s1
Staphylococcus aureus [2]
  MIC: 1.56 µg/mL (≈ 3.37 µM)
Staphylococcus aureus [3]
  MIC: 0.78 µg/mL (≈ 1.68 µM)
Staphylococcus aureus [4]
  MIC: 0.78 µg/mL (≈ 1.68 µM)
Staphylococcus aureus [5]
  MIC: 0.78 µg/mL (≈ 1.68 µM)
[8]
  CC50 at 48 h: 61 µg/mL (≈ 132 µM)
Staphylococcus aureus [6]
  MIC: 0.78 µg/mL (≈ 1.68 µM)
Staphylococcus aureus [1]
  MIC: 1.56 µg/mL (≈ 3.37 µM)

## COc1cc(CNC(=O)c2ccc([N+](=O)[O-])s2)cc(OC)c1OC(=O)c1ccc([N+](=O)[O-])s1
Staphylococcus aureus [1]
  MIC: 3.13 µg/mL (≈ 6.34 µM)

## COc1cc(CNC(=O)c2ccc([N+](=O)[O-])o2)ccc1OC(=O)c1ccc([N+](=O)[O-])o1
Staphylococcus aureus [1]
  MIC: 3.13 µg/mL (≈ 7.26 µM)
